Experiments:
[1] = test system: collagen type I and collagen type III in ulcer tissue; experiment: Collagen type I and III in chronic skin lesions of adriamycin-treated rats, Sirius red staining; format: in vivo, rat; conditions: for Collagen type I / Collagen type III: adriamycin-treated rats, 10 mg/kg BW o.d.
Text: (§1) On day 2, 4, 7, 9, 11, 14, 16, 18, 21, 23, 25 and 28 • inhalation anesthesia: isoflurane, O2, N2O mixture • size measurement of the depot and photos Day 28 section • inhalation anesthesia: isoflurane, O2, N2O mixture under anesthesia and then dislocation of the cervical spine • size measurement of the depot and the incision wound and photos • Former depots were harvested by punch biopsies • Wound 1/custodian of any animal->in liquid N2 for peroxidase and elastase determination • Wound 2/custodian of any animal->in liquid N2 for Hydroxyproline determination • Wound 3/custodian of any animal->in formalin fixed for histological studies • Samples were stored for further procedures at −80° C.
After sufficient time in formalin (24-72 h), the samples were trimmed to an appropriate size and transferred to histology-cassettes. The histo-cassettes are watered 2 h under running tap water at room temperature. The drainage and waxing was done using a Leica ASP200, the samples were embedded in paraffin, sectioned by microtome and mounted on slides. The paraffin sections were stained depending on the question (Ladewig or Sirius Red)
(§2) To assess the content of collagen type I (mature form) and collagen type III (newly formed) in ulcer tissue, Sirius red staining was performed according to standard protocols.

[2] = test system: collagen type I and collagen type III in ulcer tissue; experiment: Collagen type I and III in lesions of pressure-applied mouse skin, Sirius red staining; format: in vivo; conditions: for Collagen type I / Collagen type III: pressure-applied mouse skin, day 3 to 15, Sirius red
Text: OBJECTIVE: Pressure ulcers (decubitus ulcers) represents a large subgroup of chronic wounds. They mainly affect aged or neurologically immobilized patients. Continuous pressure at discrete skin areas leads to long-lasting hard-to-heal ulcer wounds that are also characterized by neutrophil infiltration. The presented experiment was set up to mimic this condition by applying magnet-induced pressure onto mouse skin folds. Since the area of emerging wounds is variable in form and size, its usability as a readout parameter is technically limited.
METHODS: Magnet placement leads to wounds with dermal neutrophil infiltration and delayed wound healing. Three ischemia-reperfusion (IR) cycles (12 hours on, 12 hours off) were applied in each animal to initiate decubitus ulcer formation.
On day 0 (start of experiment), the mice were weighed and put in anesthesia using an isoflurane/O2/N2O mixture. Back and flank skin was shaven. Skin was moistened with tap water and depilated using Pilca cream. Skin was lifted at the back midline and one magnet was placed on each side of the skin fold so that they were exactly opposite to each other. The magnets were left in place for 12 hours, then taken off for 12 hours. This cycle was repeated three times in total.
After sacrificing (day 15) wounds were excised using a 10 mm punch scalpel.
as §2

[3] = test system: wounds of diabetic mouse (db/db); experiment: Visual wound size reduction in diabetic mouse (db/db); format: in vivo
Method: The wounding was conducted in the following manner: • 1) db/db mice were anaesthetized with Isoflurane/O2/N2O (2.5-3.5%/800 ml/min/500 ml/min), and placed on a heating pad upon induction after application of eye ointment • 2) mice were shaven and Pilca was applied for 3-5 minutes to remove the fur and fine hairs 3) two dorsal full thickness wounds were placed with a 8 mm punch biopsie tool after wiping the skin with ethanol and wound size was measured immediately • 4) mice were treated with Temgesic and kept on warming pad until recovery from anaesthesia
Wound Size Measurement: Wound size was measured with a sliding caliper. […] Assuming an elliptic shape, wound area was calculated with:
Wound size reduction on day i was calculated from the initial area on day 0 post wounding: […]

collagen in ulcer tissue = experiment: Collagen deposition in chronic skin lesions of adriamycin-treated rats, Ladewig staining; format: in vivo, rat; conditions: 10 mg/kg BW o.d. p.o., normal skin = 0, no blue staining = −10
Method: Vehicle: • DEPO—DMSO, Ethanol, Peanut Oil 5/3/92 (V/V/V) o.d., p.o., 5 ml/kg BW
Day 0: • Animal randomization, marking, inhalation anesthesia: isoflurane, O2, N2O mixture, shaving of lower back, the animals remain on warming pads in order to avoid cooling down during the adriamycin injection, pain prevention with Temgesic s.c.
Depot set: 3 intradermal injections of 0.15 ml adriamycin (2 mg/ml) per animal in front and rear back, size measurement of the depot via caliper.
as §1
Paraffin-embedded skin samples: the skin piece is placed with the downside on a piece of cork and 4 with needles and transferred into formalin (3.7% in PBS). […]

[4] = Exposure in plasma and skin of diabetic mouse (db/db); format: in vivo; conditions: for Total concentration in skin: day 8; for Total concentration in plasma, geo mean: day 8, 20 h after last treatment
Method: Upon scarification on day 8, 20 h after the last treatment, arterial blood samples were collected into EDTA citrate serum sample tubes for LC/MSMS based quantification of compound exposure.

[5] = test system: collagen (hydroxyproline); experiment: Hydroxyproline (HYP) assay in skin lesions of adriamycin-treated rats; format: in vivo, rat; conditions: 10 mg/kg BW o.d. p.o.
Text: as §1

For `CC1=C(C#N)[C@@H](c2ccc(C#N)cc2S(C)(=O)=O)N(C)C(=O)N1c1cccc(C(F)(F)F)c1` [Example 5, (4 S)-4-[4-Cyano-2-(methylsulfonyl)phenyl]-3,6-dimethyl-2-oxo-1-[3-(trifluoromethyl)phenyl]-1,2,3,4-tetrahydropyrimidine-5-carbonitrile], the “Collagen type I” value ([1]; d 14-28, Sirius red) was 9.7, the “Collagen type III” value ([1]; d 14-28, Sirius red) was 46.69 and the “Collagen type I” value ([1]; d 21-37, Sirius red) was 8.8. For the same compound, the “Collagen type III” value ([1]; d 21-37, Sirius red) was 72.23, the “Collagen type III in Adriamycin-induced lesions (in words)” value ([1]; rats, after two weeks of treatment) was “strong increase of collagen type III” and the “Collagen type III in pressure-induced lesions (in words)” value ([2]; mice, after 12 days of treatment) was “significant increase of collagen type III”. The “Collagen type I” value ([2]; 1 mg/kg BW o.d.) was 1.1, the “Collagen type III” value ([2]; 1 mg/kg BW o.d.) was 30.2 and the “Collagen type I” value ([2]; 10 mg/kg BW o.d.) was 0.7. The “Collagen type III” value ([2]; 10 mg/kg BW o.d.) was 49.8, the Visual wound size ([3]; 0.03 mg/kg BW o.d. p.o.) was 98.5 % initial area at day 8 and the Visual wound size ([3]; 0.1 mg/kg BW o.d. p.o.) was 86.07 % initial area at day 8. It also gave a Visual wound size ([3]; 0.3 mg/kg BW o.d. p.o.) of 72 % initial area at day 8, a Visual wound size ([3]; 1.0 mg/kg BW o.d. p.o.) of 71.16 % initial area at day 8 and a Visual wound size ([3]; 3.0 mg/kg BW o.d. p.o.) of 68.1 % initial area at day 8. The Visual wound size ([3]; 10.0 mg/kg BW o.d. p.o.) was 54.85 % initial area at day 8, the EC50 ([3]; in vivo, read-out: Potency (EC50) to improve wound size reduction) was 4.5 nM and the Ladewig score (collagen in ulcer tissue) was −1.38 (n = 8). For the same compound, the “Total concentration in skin” value ([4]; 0.03 mg/kg BW o.d. p.o.) was 0.01 µM, the “Total concentration in plasma, geo mean” value ([4]; 0.03 mg/kg BW o.d. p.o.) was 0.0029 µM and the “Total concentration in skin” value ([4]; 0.1 mg/kg BW o.d. p.o.) was 0.03 µM. The “Total concentration in plasma, geo mean” value ([4]; 0.1 mg/kg BW o.d. p.o.) was 0.011 µM, the “Total concentration in skin” value ([4]; 0.3 mg/kg BW o.d. p.o.) was 0.06 µM and the “Total concentration in plasma, geo mean” value ([4]; 0.3 mg/kg BW o.d. p.o.) was 0.027 µM. For the same compound, the “Total concentration in skin” value ([4]; 1.0 mg/kg BW o.d. p.o.) was 0.16 µM, the “Total concentration in plasma, geo mean” value ([4]; 1.0 mg/kg BW o.d. p.o.) was 0.067 µM and the “Total concentration in skin” value ([4]; 3.0 mg/kg BW o.d. p.o.) was 0.30 ± 0.06 µM. The “Total concentration in plasma, geo mean” value ([4]; 3.0 mg/kg BW o.d. p.o.) was 0.13 µM, the “Total concentration in skin” value ([4]; 10.0 mg/kg BW o.d. p.o.) was 0.54 µM and the “Total concentration in plasma, geo mean” value ([4]; 10.0 mg/kg BW o.d. p.o.) was 0.17 µM. The Hydroxyproline [5] was 5169 (n = 10).
